Earlier results as cited in patent publication US20260199285A1, “TAXANE FORMULATIONS” (BIOPURIFICATION, LLC, priority 2022, published 2026).

Experiments:
[1] = test system: advanced breast carcinoma

SMILES: CC(=O)O[C@@]12CO[C@@H]1C[C@H](O)[C@@]1(C)C(=O)[C@H](O)C3=C(C)[C@@H](OC(=O)[C@H](O)[C@@H](NC(=O)OC(C)(C)C)c4ccccc4)C[C@@](O)([C@@H](OC(=O)c4ccccc4)[C@H]21)C3(C)C [docetaxel]
- inhibitory activity of tubulin depolymerization relative to paclitaxel (tubulin depolymerization): about 2 times
- effective ratio for treatment of advanced breast carcinoma [1]: 49%
